# Results taken from patent US20150368195A1, “INDOLINE COMPOUNDS FOR TREATMENT AND/OR PREVENTION OF INFLAMMATION DISEASES” (Taipei Medical University, priority 2014, published 2015).
# Read-outs that look alike come from different tables or passages of the source.
# Legend:
# nitric oxide (NO) = experiment: LPS-induced nitric oxide production in RAW 264.7 macrophages; assay type: cell-based, Mouse; conditions: for IC50: Mus musculus, RAW264.7, LPS-stimulated RAW 264.7 macrophages, mean ± SEM, three experiments
# Description: Nitrite concentration was determined using a dilution of sodium nitrite as a standard.
# (§1) Furthermore, the anti-inflammatory effects of MPT0G009 was evaluated. […] These supernatants were then assayed for PGE2, NO, and IL-6.
# prostaglandin E2 (PGE2) [1] = experiment: LPS-induced PGE2 production in RAW 264.7 macrophages; assay type: cell-based, Mouse; conditions: for IC50: Mus musculus, RAW264.7, LPS-stimulated RAW 264.7 macrophages, mean ± SEM, three experiments
# Description: as §1
# prostaglandin E2 (PGE2) [2] = experiment: LPS-induced PGE2 production by RA-FLS; assay type: cell-based; conditions: MPT0G009 0.1, 1, 10 μM; SAHA 0.3, 3, 30 μM; LPS 25 ng/mL 24 h
# Description: (§2) (FIG. 1A) Structure of MPT0G009. […] Results in (FIGS. 1B-E) and (FIG. 1G) are means±SEM's for three independent experiments, *p<0.05 and **p<0.01 compared with no added inhibitor.
# as §1
# IL-6 = experiment: IL-1β-induced IL-6 production by RA-FLS; assay type: cell-based; conditions: MPT0G009 0.1, 1, 10 μM; SAHA 0.3, 3, 30 μM; IL-1β 10 ng/mL 24 h
# Description: as §2, §1
# HIG-82 synoviocytes = experiment: SRB anti-proliferation assay; assay type: cell-based; conditions: 24 or 48 h incubation
# Text: as §2
# RA-FLS [3] = experiment: SRB anti-proliferation assay; assay type: cell-based; conditions: 24 or 48 h incubation
# Text: as §2
# RA-FLS [4] = experiment: cell cycle distribution by flow cytometry (propidium iodide); assay type: cell-based; conditions: 24 h
# Text: as §2
# p21 = p21 expression by flow cytometry or western blot in RA-FLS; assay type: cell-based; conditions: 24 h, 1 μM MPT0G009 or 3 μM SAHA
# Text: as §2
# [5] = system: inducible nitric oxide synthase (iNOS); experiment: LPS-induced iNOS protein expression, Western blot, RAW264.7; assay type: cell-based, Mouse; conditions: RAW264.7, 0.1-10 μM, LPS 25 ng/mL 24 h
# Description: (§3) Then the cells were harvested and whole cell extracts were prepared for Western blot analysis for iNOS and COX-2. The relative protein expressions are presented as mean±SEM for four replicates. *p<0.05 compared to the LPS-treated group.
# cyclooxygenase-2 (COX-2) = experiment: LPS-induced COX-2 protein expression, Western blot, RAW264.7; assay type: cell-based, Mouse; conditions: RAW264.7, 0.1-10 μM, LPS 25 ng/mL 24 h
# Description: as §3
# HDAC3 = experiment: HDAC isoform protein levels, Western blot, RA-FLS; assay type: cell-based; conditions: 12 or 24 h; 1 μM MPT0G009 or 30 μM SAHA
# Description: Then cells were harvested and cell lysates were prepared for Western blot analysis of the indicated proteins. (FIG. 5C) RA-FLS were incubated for 1 h with or without the proteasome inhibitor, MG132 (1 μM). […] Results shown are representative of three independent experiments.
# RAW264.7 macrophages = experiment: M-CSF/RANKL-induced osteoclast formation; assay type: cell-based, Mouse; conditions: 5 nM MPT0G009 or 50 nM SAHA; M-CSF/RANKL 50 ng/mL, 5 days
# Description: Cells were then tartrate resistant acid phosphatase (TRAP) stained, and the numbers of TRAP-positive multinuclear cells were counted. […] Images are at ×100 magnification, and the arrows indicate differentiated osteoclasts. (FIG. 6C) RAW264.7 cells were treated as in (FIG. 6B), then incubated with a fluorescein isothiocyanate (FITC)-conjugated anti-CD51/61 antibody and analyzed by flow cytometry. (FIGS. 6D and 6E) RAW264.7 cells (1×10^5) were transfected with 1 μg of pGL4.32[luc2P/NF-κB-RE/Hygro] (FIG. 6D) or pGL4.30[luc2P/NFAT-RE/Hygro] (FIG. 6E) for 24 h and then incubated for 30 min with or without MPT0G009 (5 nM). Then RANKL (50 ng/mL) was added and incubation was continued for an additional 24 h, after which luciferase activity was determined. Results in (FIGS. 6A, 6D, and 6E) are the means±SEM's for three independent experiments. **p<0.01 compared with the indicated controls.
# Bone destruction is one characteristic of RA pathogenesis, resulting in joint dysfunction. Differentiation of mouse macrophages osteoclast-like cells can be induced in the presence of M-CSF and RANKL, which has been used as a model to investigate osteoclast differentiation. […] Subsequently, multinucleate tartrate resistant acid phosphatase (TRAP)-positive cells were counted.
# [6] = rats, SAHA (reference 30), cited from earlier work
# [7] = system: carrageenan-induced hind paw edema; experiment: carrageenan-induced hind paw edema; conditions: for carrageenan-induced hind paw edema: oral, 1 h before carrageenan, compound 9 25 mg/kg, SAHA 200 mg/kg, Indomethacin 5 mg/kg, measured 3 h after
# Description: A 0.5% (w/v) suspension of carrageenan in normal saline was administered to male Wistar rats (7-weeks) by intradermal injection into the base of the right hind paw. […] A positive control group was included in which rats were pretreated with 5 mg/kg Indomethacin. […] The results are expressed as the mean±SEM, with n=5. *p<0.05 compared to the control group; #p<0.05 for the comparison of the indicated groups.
# Animals were divided into four groups (n=5). 0.5% (w/v) suspension of carrageenan in normal saline was administered to male Wistar rats (7-weeks) by intradermal injection into the base of the right hind paw. […] A positive control group was included in which rats were pretreated with 5 mg/kg Indomethacin. Three hours after carrageenan administration, the thickness and volume of the right hind paw were measured by digital caliper and digital plethysmometer (Diagnostic & Research Instruments CO., Ltd, Taipei, Taiwan), respectively.
# [8] = system: adjuvant-induced arthritis; experiment: adjuvant-induced arthritis (AIA) model; conditions: day 21, ELISA; MPT0G009 25 mg/kg, SAHA 200 mg/kg, indomethacin 1 mg/kg
# Description: (FIG. 8B) Hind paw volumes in the indicated group of rats were measured using a digital plethysmometer on the indicated day after AIA induction. […] (FIG. 8D) Serum levels of interleukin (IL)-1β (left panel) and IL-6 (right panel) on day 21 as measured by enzyme-linked immunosorbent assay (ELISA). […] (FIG. 8F) The bone mineral density (BMD, in mg/mm^3) and the bone mineral content (BMC, in mg) values for the bone tissue of the tarsus were analyzed using CT Analysis Software.
# interleukin-6 (IL-6) = experiment: LPS-induced IL-6 production in RAW 264.7 macrophages; conditions: Mus musculus, RAW264.7, read-out: IC50 IL-6
# [9] = system: tumor necrosis factor-α (TNF-α); experiment: LPS-induced TNF-α production in RAW 264.7 macrophages; conditions: Mus musculus, RAW264.7, read-out: IC50 TNF-α
# [10] = MPT0G009 0.1, 1, 10 μM, SAHA 0.3, 3, 30 μM, LPS 25 ng/mL 24 h
compound,measurement,setting,value
"O=C(CCCCCCC(=O)Nc1ccccc1)NO [SAHA, Suberanilohydroxamic Acid, reference compound]",NO production by RAW264.7 cells,nitric oxide (NO); [10],inhibited
same,PGE2 production by RAW264.7 cells,prostaglandin E2 (PGE2) [1]; [10],inhibited
same,PGE2 production by RA-FLS,prostaglandin E2 (PGE2) [2],inhibited
same,IL-6 production by RA-FLS,IL-6,inhibited
same,proliferation of HIG-82 synoviocytes,HIG-82 synoviocytes,concentration-dependent anti-proliferative effects
same,proliferation of RA-FLS,RA-FLS [3],concentration-dependent anti-proliferative effects
same,subG1 peak (cellular apoptosis),"RA-FLS [4]; MPT0G009 1-1000 nM, SAHA 3-3000 nM",did not increase the subG1 peak
same,G0/G1 phase arrest,RA-FLS [4]; all concentrations of both agents,G0/G1 phase arrest was observed
same,expression of p21,p21,significantly increased
same,iNOS protein expression,[5],significantly inhibited
same,iNOS protein expression,[5]; listed as SAHA (1),concentration-dependently inhibitory effects
same,COX-2 protein expression,cyclooxygenase-2 (COX-2),significantly inhibited
same,COX-2 protein expression,cyclooxygenase-2 (COX-2); listed as SAHA (1),concentration-dependently inhibitory effects
same,levels of HDAC3 in RA-FLS,HDAC3,no effect
same,expression of osteoclast-specific marker CD51/61,RAW264.7 macrophages,no effect
same,formation of M-CSF/RANKL-induced TRAP-positive cells,RAW264.7 macrophages,no effect
same,AUC(0-inf),[6]; iv 2 mg/kg,278 ng·h/mL
same,CL,[6]; iv 2 mg/kg,134 mL/min/kg
same,T1/2,[6]; iv 2 mg/kg,38.4 min
same,Vd,[6]; iv 2 mg/kg,3.92 L/kg
same,AUC(0-inf),[6]; po 5 mg/kg,49.40 ng·h/mL
same,Cmax,[6]; po 5 mg/kg,83.90 ng/mL
same,F,[6]; po 5 mg/kg,6.9%
same,T1/2,[6]; po 5 mg/kg,67.8 min
same,Tmax,[6]; po 5 mg/kg,10.2 min
same,paw thickness reduced compared to control,"[7]; SAHA 200 mg/kg oral, 3 h after carrageenan",15.7%
same,carrageenan-induced hind paw edema,[7],significantly inhibited
same,carrageenan-induced hind paw edema,[7]; listed as SAHA (1),suppress
same,serum levels of IL-1β,[8],significant decreases
same,serum levels of IL-6,[8],significant decreases
"COc1cccc(S(=O)(=O)N2CCc3cc(C=CC(=O)NO)ccc32)c1 [Compound 8, 3-[1-(3-Methoxybenzenesulfonyl)-2,3-dihydro-1H-indol-5-yl]-N-hydroxyacrylamide]",IC50,nitric oxide (NO),7350 ± 830 nM
same,IC50,prostaglandin E2 (PGE2) [1],1360 ± 290 nM
same,melting point,,156 to 157 °C
same,IC50,interleukin-6 (IL-6),20 nM
same,IC50,[9],1090 ± 120 nM
"COc1ccc(S(=O)(=O)N2CCc3cc(C=CC(=O)NO)ccc32)cc1OC [Compound 10, 3-[1-(3,4-Dimethoxybenzenesulfonyl)-2,3-dihydro-1H-indol-5-yl]-N-hydroxyacrylamide]",IC50,nitric oxide (NO),7310 ± 660 nM
same,IC50,prostaglandin E2 (PGE2) [1],1900 ± 210 nM
same,melting point,,192 to 193 °C
same,IC50,interleukin-6 (IL-6),10 nM
same,IC50,[9],620 ± 120 nM
"O=C(C=Cc1ccc2c(c1)CCN2S(=O)(=O)c1ccccc1)NO [Compound 7, 3-(1-Benzenesulfonyl-2,3-dihydro-1H-indol-5-yl)-N-hydroxyacrylamide]",IC50,nitric oxide (NO),4640 ± 120 nM
same,IC50,prostaglandin E2 (PGE2) [1],1680 ± 270 nM
same,IC50,interleukin-6 (IL-6),20 nM
same,IC50,[9],990 ± 70 nM
O=C(/C=C/c1ccc2c(ccn2S(=O)(=O)c2ccccc2)c1)NO [Compound 6],IC50,nitric oxide (NO),> 10000 nM
same,IC50,prostaglandin E2 (PGE2) [1],5130 ± 480 nM
same,IC50,interleukin-6 (IL-6),170 nM
same,IC50,[9],3730 ± 260 nM
"O=C(C=Cc1ccc2c(c1)CCN2S(=O)(=O)c1ccc(Cl)cc1)NO [Compound 12, 3-[1-(4-Chlorobenzenesulfonyl)-2,3-dihydro-1H-indol-5-yl]-N-hydroxyacrylamide]",IC50,nitric oxide (NO),5490 ± 480 nM
same,IC50,prostaglandin E2 (PGE2) [1],1040 ± 150 nM
same,melting point,,159 to 160 °C
same,IC50,interleukin-6 (IL-6),20 nM
same,IC50,[9],1010 ± 110 nM
"O=C(C=Cc1ccc2c(c1)CCN2S(=O)(=O)c1ccc(F)cc1)NO [Compound 11, 3-[1-(4-Fluorobenzenesulfonyl)-2,3-dihydro-1H-indol-5-yl]-N-hydroxyacrylamide]",IC50,nitric oxide (NO),4410 ± 310 nM
same,IC50,prostaglandin E2 (PGE2) [1],1310 ± 160 nM
same,melting point,,129 to 131 °C
same,IC50,interleukin-6 (IL-6),30 nM
same,IC50,[9],1040 ± 250 nM
"CN(C)c1cccc2c(S(=O)(=O)N3CCc4cc(C=CC(=O)NO)ccc43)cccc12 [Compound 15, 3-[1-(5-Dimethylaminonaphthalene-1-sulfonyl)-2,3-dihydro-1H-indol-5-yl]-N-hydroxyacrylamide]",IC50,nitric oxide (NO),> 10000 nM
same,IC50,prostaglandin E2 (PGE2) [1],2700 ± 430 nM
same,melting point,,142 to 143 °C
same,IC50,interleukin-6 (IL-6),90 nM
same,IC50,[9],2110 ± 280 nM
"COc1ccc2c(c1)c(CC(=O)O)c(C)n2C(=O)c1ccc(Cl)cc1 [Indomethacin, reference compound]",carrageenan-induced hind paw edema,[7],suppressed
same,serum levels of IL-1β,[8],significant decreases
same,serum levels of IL-6,[8],significant decreases
"O=C(C=Cc1ccc2c(c1)CCN2S(=O)(=O)c1ccc([N+](=O)[O-])cc1)NO [Compound 13, 3-[1-(4-Nitrobenzenesulfonyl)-2,3-dihydro-1H-indol-5-yl]-N-Hydroxyacrylamide]",IC50,nitric oxide (NO),3110 ± 370 nM
same,IC50,prostaglandin E2 (PGE2) [1],1760 ± 260 nM
same,melting point,,163 to 165 °C
same,IC50,interleukin-6 (IL-6),20 nM
same,IC50,[9],1370 ± 180 nM
"Nc1ccc(S(=O)(=O)N2CCc3cc(C=CC(=O)NO)ccc32)cc1 [Compound 14, 3-[1-(4-Aminobenzenesulfonyl)-2,3-dihydro-1H-indol-5-yl]-N-hydroxyacrylamide]",IC50,nitric oxide (NO),> 10000 nM
same,IC50,prostaglandin E2 (PGE2) [1],> 10000 nM
same,melting point,,97 to 99 °C
same,IC50,interleukin-6 (IL-6),> 10000 nM
same,IC50,[9],> 10000 nM
